Laboratory results reported in ChEMBL document CHEMBL1132738, “Carbohydrate-modulated DNA photocleavage: design, synthesis, and evaluation of novel glycosyl anthraquinones” (Bioorg Med Chem Lett, 2000).

Key:
HeLa [1] = assay: The compound was evaluated for its inhibitory activity against HeLa S3 cells in the absence of photoirradiation.; format: functional, cell-based; conditions: Homo sapiens, light or radiation study
HeLa [2] = assay: The compound was evaluated for its inhibitory activity against HeLa S3 cells in the presence of photoirradiation.; format: functional, cell-based; conditions: Homo sapiens, light or radiation study

SMILES | IC50 (HeLa [1]) | IC50 (HeLa [2])
C[C@@H]1O[C@H](OCc2ccc3c(c2O)C(=O)c2ccccc2C3=O)C[C@@H](N(C)C)[C@@H]1O | 13 µM | 4.3 µM
C[C@@H]1O[C@@H](OCc2ccc3c(c2O)C(=O)c2ccccc2C3=O)C[C@@H](N(C)C)[C@@H]1O | 8.8 µM | 1.9 µM
CC1OC(c2ccc3c(c2O)C(=O)c2ccccc2C3=O)CC(N(C)C)C1O (stereo unspecified) | 9 µM | 4.8 µM
